In ChEMBL document CHEMBL2086259, “13,28-Epoxy triterpenoid saponins from Ardisia japonica selectively inhibit proliferation of liver cancer cells without affecting normal liver cells” (Bioorg Med Chem Lett, 2012) one finds IC50 data, which are given here for eleven compounds.

Assay [1] can be described thus: Cytotoxicity against human HL-7702 cells after 72 hrs by MTT assay. The assay is classed as cell-based. To be noted: L02, 72 h. Background: Tetrazolium dyes change colour on reduction, which living cells bring about.
The next assay has as its system HepG2. Description: Cytotoxicity against human HepG2 cells after 72 hrs by MTT assay. In kind it is functional, cell-based. To be noted: HepG2, 72 h.
The next assay has as its system Bel-7402. Description: Cytotoxicity against human Bel7402 cells after 72 hrs by MTT assay. In kind it is functional, cell-based. To be noted: Bel-7402, 72 h.

SMILES strings stand for the structures. Where only a bound is given, the exact number is not on record here.

In the case of `C[C@@H]1O[C@@H](O[C@H]2[C@H](O[C@H]3CO[C@@H](O[C@H]4CC[C@]5(C)[C@H]6CC[C@]78OC[C@@]9(CCC(C)(C)C[C@H]97)[C@H](O)C[C@@]8(C)[C@]6(C)CC[C@H]5C4(C)C)[C@H](O)[C@H]3O)O[C@H](CO)[C@@H](O)[C@@H]2O)[C@H](O)[C@H](O)[C@H]1O` [ARDISIANOSIDE C], the IC50 in assay [1] was above 100 µM; in the assay with HepG2, 13.6 µM; in the assay on Bel-7402, 4.14 µM.

Turning to `CC1(C)CC[C@]23CO[C@@]4(CC[C@@H]5[C@@]6(C)CC[C@H](O[C@@H]7OC[C@H](O[C@@H]8O[C@H](CO)[C@@H](O)[C@H](O)[C@H]8O[C@@H]8OC[C@@H](O)[C@H](O)[C@H]8O)[C@H](O)[C@H]7O)C(C)(C)[C@@H]6CC[C@@]5(C)[C@]4(C)C[C@H]2O)[C@@H]3C1` [ARDISIANOSIDE D], the figures for the IC50 (in assay [1]; with HepG2; in the assay on Bel-7402) were above 100 µM, 31.2 µM and 14.8 µM, respectively.

`C[C@@H]1O[C@@H](O[C@H]2[C@H](O[C@H]3CO[C@@H](O[C@H]4CC[C@]5(C)[C@H]6CC[C@]78OC[C@@]9(CC[C@](C)(O)C[C@H]97)[C@H](O)C[C@@]8(C)[C@]6(C)CC[C@H]5C4(C)C)[C@H](O[C@@H]4O[C@H](CO)[C@@H](O)[C@H](O)[C@H]4O)[C@H]3O)O[C@H](CO)[C@@H](O)[C@@H]2O)[C@H](O)[C@H](O)[C@H]1O` [ARDISIANOSIDE G]: the half-inhibitory concentration (IC50) (in assay [1]; in the assay with HepG2; in the assay on Bel-7402) was above 100 µM each time.

As for `CC1(C)CC[C@]23C(=O)O[C@@]4(CC[C@@H]5[C@@]6(C)CC[C@H](O[C@@H]7OC[C@H](O[C@@H]8O[C@H](CO)[C@@H](O)[C@H](O[C@@H]9O[C@H](CO)[C@@H](O[C@@H]%10O[C@H](CO)[C@@H](O)[C@H](O)[C@H]%10O)[C@H](O[C@@H]%10O[C@H](CO)[C@@H](O)[C@H](O)[C@H]%10O)[C@H]9O)[C@H]8O[C@@H]8OC[C@@H](O)[C@H](O)[C@H]8O)[C@H](O)[C@H]7O[C@@H]7O[C@H](CO)[C@@H](O)[C@H](O)[C@H]7O)C(C)(C)[C@@H]6CC[C@@]5(C)[C@]4(C)C[C@H]2O)[C@@H]3C1` [ARDISIANOSIDE H], the IC50 (in assay [1]; with HepG2; in the assay on Bel-7402) was above 100 µM in each case.

As to `C[C@@H]1O[C@@H](O[C@H]2[C@H](O[C@H]3CO[C@@H](O[C@H]4CC[C@]5(C)[C@H]6CC[C@]78OC(=O)[C@@]9(CC[C@](C)(CO)C[C@H]97)[C@H](O)C[C@@]8(C)[C@]6(C)CC[C@H]5C4(C)C)[C@H](O[C@@H]4O[C@H](CO)[C@@H](O)[C@H](O)[C@H]4O)[C@H]3O)O[C@H](CO)[C@@H](O)[C@@H]2O)[C@H](O)[C@H](O)[C@H]1O` [ARDISIANOSIDE I], the IC50 (in assay [1]; with HepG2; in the assay with Bel-7402) was above 100 µM each time.

Turning to `C[C@@H]1O[C@@H](O[C@H]2[C@H](O[C@H]3CO[C@@H](O[C@H]4CC[C@]5(C)[C@H]6CC=C7[C@@H]8C[C@@](C)(CO)CC[C@]8(CO)[C@@H]8O[C@@H]8[C@@]7(C)[C@]6(C)CC[C@H]5C4(C)C)[C@H](O[C@@H]4O[C@H](CO)[C@@H](O)[C@H](O)[C@H]4O)[C@H]3O)O[C@H](CO)[C@@H](O)[C@@H]2O)[C@H](O)[C@H](O)[C@H]1O` [ARDISIANOSIDE K], the concentration for half-maximal inhibition (IC50) (in assay [1]; with HepG2; with Bel-7402) was above 100 µM throughout.

For `CC1(C)CC[C@]23CO[C@@]4(CC[C@@H]5[C@@]6(C)CC[C@H](O[C@@H]7OC[C@H](O[C@@H]8O[C@H](CO)[C@@H](O)[C@H](O[C@@H]9O[C@H](CO)[C@@H](O[C@@H]%10O[C@H](CO)[C@@H](O)[C@H](O)[C@H]%10O)[C@H](O[C@@H]%10O[C@H](CO)[C@@H](O)[C@H](O)[C@H]%10O)[C@H]9O)[C@H]8O[C@@H]8OC[C@@H](O)[C@H](O)[C@H]8O)[C@H](O)[C@H]7O[C@@H]7O[C@H](CO)[C@@H](O)[C@H](O)[C@H]7O)C(C)(C)[C@@H]6CC[C@@]5(C)[C@]4(C)C[C@H]2O)[C@@H]3C1` [ARDISIANOSIDES A], the IC50 in assay [1] is above 100 µM; in the assay with HepG2 it was 3.83 µM; in the assay on Bel-7402, 1.37 µM.

As for `C[C@@H]1O[C@@H](O[C@H]2[C@H](O[C@H]3CO[C@@H](O[C@H]4CC[C@]5(C)[C@H]6CC[C@]78OC[C@@]9(CC[C@](C)(CO)C[C@H]97)[C@H](O)C[C@@]8(C)[C@]6(C)CC[C@H]5C4(C)C)[C@H](O[C@@H]4O[C@H](CO)[C@@H](O)[C@H](O)[C@H]4O)[C@H]3O)O[C@H](CO)[C@@H](O)[C@@H]2O)[C@H](O)[C@H](O)[C@H]1O` [ARDISICRENOSIDE A], the IC50 (in assay [1]; in the assay with HepG2; in the assay on Bel-7402) was above 100 µM in each case.

In the case of `CC1(C)[C@@H](O[C@@H]2OC[C@H](O[C@@H]3O[C@H](CO)[C@@H](O)[C@H](O[C@@H]4O[C@H](CO)[C@@H](O)[C@H](O)[C@H]4O)[C@H]3O[C@@H]3OC[C@@H](O)[C@H](O)[C@H]3O)[C@H](O)[C@H]2O[C@@H]2O[C@H](CO)[C@@H](O)[C@H](O)[C@H]2O)CC[C@]2(C)[C@H]3CC[C@]45OC[C@@]6(CC[C@](C)(C=O)C[C@H]64)[C@H](O)C[C@@]5(C)[C@]3(C)CC[C@@H]12` [CYCLAMIN], the figures for the IC50 (in assay [1]; in the assay with HepG2; in the assay on Bel-7402) were above 100 µM, 12.2 µM and 3.85 µM, respectively.

In the case of `C[C@@H]1O[C@@H](O[C@H]2[C@H](O[C@H]3CO[C@@H](O[C@H]4CC[C@]5(C)[C@H]6CC[C@]78OC[C@@]9(CC[C@](C)(C=O)C[C@H]97)[C@H](O)C[C@@]8(C)[C@]6(C)CC[C@H]5C4(C)C)[C@H](O)[C@H]3O)O[C@H](CO)[C@@H](O)[C@@H]2O)[C@H](O)[C@H](O)[C@H]1O` [CYCLAMIRETIN A], the IC50 (in assay [1]; in the assay on HepG2; in the assay with Bel-7402) was above 100 µM each time.

As to `CC1(C)[C@@H](O[C@@H]2OC[C@H](O[C@@H]3O[C@H](CO)[C@@H](O)[C@H](O)[C@H]3O[C@@H]3OC[C@@H](O)[C@H](O)[C@H]3O)[C@H](O)[C@H]2O)CC[C@]2(C)[C@H]3CC[C@]45OC[C@@]6(CC[C@](C)(C=O)C[C@H]64)[C@H](O)C[C@@]5(C)[C@]3(C)CC[C@@H]12` [PRIMULANIN], the IC50 in assay [1] was above 100 µM; in the assay with HepG2, above 100 µM; with Bel-7402, 4.05 µM.

As a reminder, the IC50 is the point on the concentration scale where inhibition reaches its midpoint. A low value points to greater potency in that assay.
